Several values for one entry are separate records, joined by “and”; a condition that tells them apart may be missing. Equal values may be shown once.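 Compound exposure: 48 hours, 5 concentrations, 96-well plates. At the GI50, growth is halved. TGI marks complete inhibition of growth.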 Where a SMILES comes first, the peptide text is derived from it. [ ]: non-standard residue; d: D form. The star is where a group is joined. Decanoyl = CCCCCCCCCC(=O)*; Leu(ol) = CC(C)C[C@H](N)CO; Iva = CC[C@](C)(N)C(=O)O; Aib = CC(C)(N)C(=O)O

The test concerns MDA-MB-468 breast. As to the kind of experiment: DTP human tumour cell line panel, 48 h.
As to `O=C(Nc1cccc(-n2ccc3c(NC(=O)c4ccccc4)nccc32)c1)Nc1ccc(Cl)c(C(F)(F)F)c1`, the GI50 is 257 nM and the TGI worked out at 3360 nM.

Turning to `CCOC(=O)c1ccc2c(c1)[n+](=O)c(C(=O)C1CCCS1)c(C(F)(F)F)n2[O-]` (centres undefined), the concentration for 50% growth inhibition (GI50) is 250 nM and the TGI was determined as 967 nM.

With `C=C1CC2(OC1=O)C(=O)N(C)c1ccc(I)cc12` (centres undefined), the GI50 was 537 nM and the TGI was 2760 nM.

On to `O=C(Nc1ccc(-n2cc(-c3ccncc3)c(-c3ccc(O)c(Cl)c3)n2)cc1)c1cc(C(F)(F)F)cc(C(F)(F)F)c1`, for which the GI50 was 6060 nM and the TGI is more than 25000 nM.

Consider `C[CH2][Sn]([CH2]C)([O]C(=O)c1cccc(OC)c1)[O][Sn]([CH2]C)([CH2]C)[O]C(=O)c1cccc(OC)c1`, for which the GI50 is 5530 nM and the TGI is 20800 nM.

As to `O=C(/C=C/c1cc2ccccc2[nH]c1=O)c1ccc(Cl)cc1`, the GI50 was 17400 nM and the TGI was determined as 35200 nM.

In the case of `O=C(NC(=S)Nc1ccccn1)c1ccccc1`, the GI50 was 12500 nM and the TGI was more than 100000 nM.

As for `Cc1c([C@H](C(Cl)Cl)[C@H](O)[C@H]2C[C@H](C)C(=O)O2)ccc2c1C(=O)[C@H]1[C@H]2C[C@@H](Br)[C@@]23O[C@@H](CO[C@H]2O)CC13C` (some centres undefined), the 50% growth inhibitory concentration (GI50) was 129 nM and the concentration for total growth inhibition (TGI) was 922 nM.

Turning to `CCNCCCn1c2c(c3ccc(F)cc3c1=O)C(=O)c1cc(OC)cnc1-2`, the 50% growth inhibitory concentration (GI50) is 139 nM and the TGI came out at 312 nM.

`Nc1n[n+](=O)c2ccccc2n1O`: the GI50 is 19600 nM and the concentration for total growth inhibition (TGI) was 67000 nM.

On to `C=C1c2c(C)nn(-c3ccc(OC)cc3)c2N(C)C23C[C@@H]1C1(C)c4c(C)nn(-c5ccc(OC)cc5)c4N(C)C(C)(C[C@H]12)C3` (some centres undefined), for which the GI50 is 2500 nM and the TGI is 12800 nM.

Turning to `COc1ccc(-c2nnc(COc3ccc(Cl)cc3Cl)o2)cc1OC`, the GI50 was 7320 nM and the concentration for total growth inhibition (TGI) was 54400 nM.

For the compound `C#Cc1ccc(NC(=O)c2ccc(/C=C/C(=O)c3nccn3C)cc2)c(F)c1`, the GI50 was 1240 nM and the TGI came out at 4420 nM.

On to `N#Cc1c(-c2ccc(Cl)cc2)csc1NC(=O)Nc1ccc(Cl)c(C(F)(F)F)c1`, for which the concentration for 50% growth inhibition (GI50) was 186 nM and the total growth inhibition concentration (TGI) was determined as 1510 nM.

For `Cn1c(=O)n(CCCO)c(=O)c2c1nc(Oc1cccc(OC(F)(F)F)c1)n2Cc1ccc(Cl)cc1`, the GI50 is 12900 nM and the total growth inhibition concentration (TGI) came to 29900 nM.

`CC1(C)CCC2(CC1)N[C@@H](C(=O)N[C@@H]1CC[C@@H](C(N)=O)OC1)[C@H](c1ccnc(Cl)c1F)[C@]21C(=O)Nc2cc(Cl)ccc21`: the GI50 is 2240 nM and the total growth inhibition concentration (TGI) was determined as 5630 nM.

For `NS(=O)(=O)c1ccc(N=Cc2c(O)[nH]c3ccc4ncsc4c23)cc1`, the GI50 is 488 nM and 472 nM; the concentration for total growth inhibition (TGI) was 1140 nM and 1080 nM.

Turning to `C=CCn1c(SCC(=O)Nc2ccc(C(=O)/C=C/c3cc(OC)c(OC)c(OC)c3)cc2)nnc1-c1ccc(Cl)cc1`, the GI50 is 3470 nM and the TGI was 26600 nM.

For `N#C/C(=C\c1cn(Cc2ccccc2)c2ccccc12)C(=O)Nc1ncc(Cc2ccccc2Cl)s1`, the GI50 is 1840 nM and the total growth inhibition concentration (TGI) stood at 4680 nM.

On to `Brc1ccc(SCN(CSc2ccc(Br)cc2)Cc2ccccc2)cc1`, for which the GI50 was 6450 nM and the concentration for total growth inhibition (TGI) was found to be 30600 nM.

Turning to `C=C1C(=O)O[C@H]2[C@H]1CC/C(CNC(=O)c1cccc3ccccc13)=C\CC[C@@]1(C)O[C@@H]21`, the GI50 is 1380 nM and the TGI is 4240 nM.

Consider `COC(=O)[C@@H](C)C[C@H](Cc1ccccc1)NC(=O)c1cccc([C@@H](C[C@H](C(C)C)N(C)C(=O)[C@@H](NC(=O)[C@H]2CCCCN2C)C2CC2)OC(C)=O)n1`, for which the concentration for 50% growth inhibition (GI50) was 3.33 nM; the TGI is 33300 nM and > 100000 nM.

Regarding `O=[N+]([O-])c1ccc(C(Br)c2ccc([N+](=O)[O-])cc2)cc1`, the GI50 was 11500 nM and the TGI is 25900 nM.

Consider `Oc1ccc(CSc2nnc(-c3ccc(Cl)cc3)n2-c2ccccc2)c2cccnc12`, for which the GI50 was 1190 nM and the total growth inhibition concentration (TGI) is more than 100000 nM.

Turning to `CCOc1ccc(C(=O)Nc2ncc(Cc3ccc(F)cc3)s2)cc1`, the GI50 is 266 nM and the total growth inhibition concentration (TGI) is more than 100000 nM.

Take `COC1=CC(=O)c2c(ccc3ncnc(N)c23)C1=O`: the GI50 was 1140 nM and the TGI was 2770 nM.

`CCCCCCCCCC(=O)NC(C)(C)C(=O)N1CCC[C@H]1C(=O)N[C@@H](CC(C)C)C(=O)N[C@@](C)(CC)C(=O)N[C@@H](CCC(N)=O)C(=O)N[C@H](CCC(N)=O)C(=O)NC(C)(C)C(=O)NC(C)(C)C(=O)N[C@@H](CCC(N)=O)C(=O)N[C@H](CC(C)C)C(=O)N[C@H](CO)CC(C)C` (Decanoyl-[Aib]PL[Iva]Q[dQ][Aib][Aib]Q[dL][Leu(ol)]): the GI50 is 1790 nM and the total growth inhibition concentration (TGI) worked out at 3340 nM.

In the case of `COc1cc(C(=O)c2c(-c3ccccc3)oc3c(OC)cccc23)cc(OC)c1O`, the GI50 was 936 nM and the TGI turned out to be 7220 nM.

As for `COc1ccc2c(c1)oc1c(C)c3c(c(C)c12)C(=O)N(N)C3=O`, the GI50 was more than 100000 nM and the concentration for total growth inhibition (TGI) was more than 100000 nM.

Consider `COc1ncc(-c2ccc3nccc(C#CCCCCC(=O)O)c3c2)cc1NS(=O)(=O)c1ccc(F)cc1F`, for which the concentration for 50% growth inhibition (GI50) is 132 nM and the TGI is 1900 nM.

For `C1=C/COCc2cc(ccc2OCCN2CCCC2)Nc2nccc(n2)-c2cccc(c2)COC/1`, the GI50 was 396 nM and 562 nM; the concentration for total growth inhibition (TGI) is 1480 nM and 2010 nM.

For the compound `COc1cc(/C=C/C(=O)c2ccc(Nc3nc(Nc4ccc(F)cc4)nc(Nc4ccc(Cl)cc4)n3)cc2)cc(OC)c1OC`, the GI50 is 1340 nM and the total growth inhibition concentration (TGI) is 3750 nM.

As for `COc1cccc2c1C(=O)c1c(O)c3c(c(O)c1C2=O)CC(O)(/C(C)=N/NC(=O)CCCCC(=O)N/N=C(\C)C1(O)Cc2c(O)c4c(c(O)c2C(OC2CC(N)C(O)C(C)O2)C1)C(=O)c1c(OC)cccc1C4=O)CC3OC1CC(N)C(O)C(C)O1` (centres undefined), the concentration for 50% growth inhibition (GI50) is 93.5 nM and the TGI stood at 251 nM.

Turning to `COc1cc(/C=C/C(=O)Nc2ccc3c(c2)/C(=C\c2cccn2C)C(=O)N3)cc(OC)c1OC`, the GI50 was 3390 nM and the TGI was found to be 25200 nM.

Turning to `CCCSc1ccc2nc(NC(=O)OC)[nH]c2c1`, the concentration for 50% growth inhibition (GI50) was 210 nM and the TGI worked out at 702 nM.

As for `O=c1c2c([nH]c3ccccc13)CCCC2`, the GI50 is 16700 nM and the total growth inhibition concentration (TGI) is more than 100000 nM.

`COc1ccc(-c2c(-c3cc(OC)c(OC)c(OC)c3)nc3sc(C4CC4)nn23)cc1OC`: the GI50 is 1900 nM and the TGI worked out at 31400 nM.

By GI50 is commonly meant the concentration giving 50% growth inhibition. As a reminder, the TGI is the concentration at which net growth stops. Read a low TGI as greater sensitivity of the cells.

Source of the values: PubChem BioAssay (NCI).
